Literature values in patent US20050142225A1, “Stabilised pharmaceutical compositions on the basis of polyoxyethlated castor oil and method for manufacturing the same” (Pliva-Lachema A.S., priority 2003, published 2005).
Read-outs that look alike come from different tables or passages of the source.

With CC(=O)O[C@H]1C(=O)[C@@]2(C)[C@H]([C@H](OC(=O)c3ccccc3)[C@]3(O)C[C@H](OC(=O)[C@H](O)[C@@H](NC(=O)c4ccccc4)c4ccccc4)C(C)=C1C3(C)C)[C@]1(OC(C)=O)CO[C@@H]1C[C@@H]2O [taxol, paclitaxel] as the molecule, how does the content of taxol (composition with Cremophor EL, without an acid (pH of 9.1), after 7 days at 40° C.) read?
Its content of taxol is 86,7%.

And the content of taxol (composition with pH adjusted by acetic acid to 6.7, after 7 days)?
The content of taxol was 97,5%.

What about the content of taxol (composition with pH adjusted by citric acid to 6.2, after 7 days) of the same molecule?
The content of taxol was 96,6%.
